{"source": "paper PMC7714071", "about": "“Interaction of amyloid beta with humanin and acetylcholinesterase is modulated by ATP” (FEBS Open Bio, 2020)", "key": {"Aβ42 [1]": {"test_system": "Aβ42", "conditions": "binds directly to Aβ42; cited from earlier work", "from_the_text": "Almost all types of cells produce amyloid beta (Aβ), a peptide well recognized for its role in the development and progression of different stages of Alzheimer's disease (AD). The Aβ peptide is ~ 4 kDa and derived from the sequential processing of the higher molecular weight amyloid precursor protein by two membrane‐bound endoproteases, β‐ and γ‐secretase. Different C‐terminal Aβ heterogeneity results from processing by γ‐secretase, where Aβ40 represents the most abundant isoform (~ 90%) as compared to Aβ42 (~ 10%). Self‐assembled Aβ40/42 peptides into amyloid fib ... || Amino acid residues involved in direct interactions between HN and Aβ40 were identified previously by molecular modeling. The specific epitopes at the binding interface between HN and Aβ40 were identified, by proteolytic epitope excision and extraction in addition to affinity–mass spectrometric data analysis, to be HN (5–15) and Aβ (17–28). […] Inhibiting the 17–28 region of Aβ reduced aggregation of the neurotoxic amyloid fibrils and related cytotoxicity in SH‐SY5Y, a human neuroblastoma cell ... || Acetylcholinesterase (AChE) is an enzyme known for its role in terminating acetylcholine‐mediated neurotransmission at the synaptic cleft. The majority of the cortical AChE in the Alzheimer's brain is mainly associated with the amyloid core of senile plaques. […]"}, "Aβ42 [2]": {"test_system": "Aβ42", "test": "ELISA, binding of biotinylated-HN to immobilised Aβ42", "conditions": "Aβ 100 nM on wells, biotinylated-HN 300 nM, increasing HS; three independent assays; Fig. 2B", "procedure": "ELISAs were carried out as we previously reported. Nunc MaxiSorp 96‐well flat bottom plate (Thermo Fisher) wells were coated with samples as indicated. The plates were incubated overnight at 4 °C on a shaker to allow binding of the samples to the plate wells. After the incubation, the wells were washed 4× with TBST, filled with 400 µL blocking buffer (110 mM KCl, 5 mM NaHCO3, 5 mM MgCl2, 1 mM EGTA, 0.1 mM CaCl2, 20 mM HEPES, 1% BSA, pH 7.4), and incubated with shaking overnight at 4 °C. The wells were then washed 4× with TBST, and 100 µL of sample at the desired concentration was added to each well and incubated with shaking overnight at 4 °C. TBST was then used to wash the wells 4× before proceeding in one of two ways: (a) biotinylated samples were analyzed by adding 100 µL streptavidin–HRP conjugate in TBST (1 : 2500 dilution) to the samples followed by incubation for 3 h at RT on a shaker, or (b) samples without biotin were analyzed by adding 100 µL TBST containing the primary antibody as per the manufacturer's recommendation, incubating for 3 h at RT on a shaker, followed by washing the wells 4× with TBST. […] The reaction was stopped with 100 µL 2 M H2SO4 after incubating at RT for 0.5–15 min, resulting in a yellow color change, measured by absorbance at 450 nm. […] Statistical analysis was determined by the […] […] Data were expressed as the mean ± SD. […]"}}, "data": [{"substance": "Humanin [HN]", "values": [{"measurement": "antioligomeric activity", "setting": "Aβ42 [1]", "value": "exhibit antioligomeric activity"}]}, {"substance": "heparan sulfate [HS]", "values": [{"measurement": "effect of HS on binding of HN to Aβ42", "setting": "Aβ42 [2]", "value": "No effects"}]}]}
